The record followed here is EP1192125B9, “MONO-SUBSTITUTED 3-PROPYL GAMMA-AM[…]” (Warner-Lambert Company LLC, priority 1999, dated 2000).

Like-named read-outs stand apart in the source and are kept apart here.

Common to all, as to format: in vivo
Experiment [1] relates to DBA/2 mice. Kind of experiment: DBA2 mouse model of anticonvulsant efficacy (sound-induced seizures). Further details: Anticonvulsant % Protect 2 br / Anticonvulsant % Protect 1hr: concentration or dose not given beside the values. The following applies: for responders at 30 mg/kg: Mus musculus; for Anticonvulsant % Protect 2 br / Anticonvulsant % Protect 1hr: Table 1.
A short description of experiment [2]: Anxiolytic activity relative to pregabalin (test model not specified). Particulars: 30 mg/kg PO; percent of pregabalin activity.
Experiment [3] concerns Male Sprague-Dawley rats. As to the kind of experiment: Carrageenin-induced hyperalgesia, rat paw pressure test. Particulars: dosed orally at 30 mg/kg. For orientation: In the carrageenan paw model, swelling and tenderness develop within hours.
Experimental: Male Sprague-Dawley rats (70-90 g) were trained on this apparatus before the test day. Pressure was gradually applied to the hind paw of each rat and nociceptive thresholds were determined as the pressure (g) required to elicit paw withdrawal. […] On the test day, two to three baseline measurements were taken before animals were administered 100 µL of 2% carrageenin by intraplantar injection into the right hind paw.
Setting [4] is: 30 mg/kg PO, 1h, read-out: Anticonvulsant % Protect* 1h.
The mark [5] stands for this setting: 30 mg/kg PO, 2h, read-out: Anticonvulsant % Protect* 2h.

On to `CCC(C(C)C)C(CN)CC(=O)O` (stereo not drawn) [3-aminomethyl-4-isopropyl-hexanoic acid, 3-Aminomethyl-4-isopropyl-hexanoic acid], for which the responders at 30 mg/kg in experiment [1] (setting [4]) and in experiment [1] (setting [5]) was 0% throughout.
As to `CC(CC(CN)CC(=O)O)C(F)(F)F` (stereo not drawn) [3-Aminomethyl-6,6,6-trifluoro-5-methyl-hexanoic acid], the responders at 30 mg/kg in experiment [1] (setting [4]) and in experiment [1] (setting [5]) was 0% in each case.
For the compound `CC(C)C(c1ccccc1)C(CN)CC(=O)O` (stereo not drawn) [3-Aminomethyl-5-methyl-4-phenyl-hexanoic acid], the responders at 30 mg/kg in experiment [1] (setting [4]) and in experiment [1] (setting [5]) was 0% throughout.
For `CCC(C)CC(CN)CC(=O)O` (stereo not drawn), in experiment [1], the “Anticonvulsant % Protect 2 br” value is given as 100% and the “Anticonvulsant % Protect 1hr” value is 60%.
`CC(C)CC(CN)CC(=O)O` (stereo not drawn) [reference compound]: the “Anticonvulsant % Protect 2 br” value in experiment [1] was determined as 100%.
As for `CCC[C@H](C)C[C@H](CN)CC(=O)O` [(3S,5S)-3-Aminomethyl-5-methyl-octanoic acid], the values for the responders at 30 mg/kg in experiment [1] (setting [4]) and in experiment [1] (setting [5]) were 0% and 20%, respectively. For the same compound, the “Anxiolytic Activity* % Preg. Act.” value in experiment [2] worked out at 15.6%.
`CC[C@@H](C)C[C@H](CN)CC(=O)O` [(3S,5R)-3-Aminomethyl-5-methyl-heptanoic acid]: the “Anticonvulsant % Protect* 2h” value in experiment [1] (30 mg/kg PO, 2h) came out at 100%.
For the compound `CCCCC(C(C)C)C(CN)CC(=O)O` (stereo not drawn) [3-aminomethyl-4-isopropyl-octanoic acid, 3-Aminomethyl-4-isopropyl-octanoic acid], the responders at 30 mg/kg in experiment [1] (setting [4]) and in experiment [1] (setting [5]) was 0% in each case.
As to `CCC(C)CC(CN)CC(=O)O` (racemic) [3-Aminomethyl-5-methylheptanoic acid], the responders at 30 mg/kg turned out to be 60% in experiment [1] (setting [4]) and 100% in experiment [1] (setting [5]). Besides, the “Anxiolytic Activity* % Preg. Act.” value in experiment [2] is 79%.
On the same counts, the results for `CCCCC[C@@H](C)C[C@H](CN)CC(=O)O` [(3S,5R)-3-Aminomethyl-5-methyl-decanoic acid] are 100%, 100% and 105.59%.
Turning to `CCCCC[C@H](C)C[C@H](CN)CC(=O)O` [(3S,5S)-3-Aminomethyl-5-methyl-decanoic acid], the responders at 30 mg/kg turned out to be 0% in experiment [1] (setting [4]) and 20% in experiment [1] (setting [5]).
On the same counts, the results for `CCCCC(C)CC(CN)CC(=O)O` (stereo not drawn) [3-Aminomethyl-5-methylnonanoic acid, 3-Aminomethyl-5-methyl-nonanoic acid] are 40% and 80%.
On the same counts, the results for `COCC(C)C[C@H](CN)CC(=O)O` (stereo partly drawn) [(S)-3-Aminomethyl-6-methoxy-5-methyl-hexanoic acid] are 0% and 0%.
For the compound `CCC(CC)CC(CN)CC(=O)O` (stereo not drawn), in experiment [1], the “Anticonvulsant % Protect 2 br” value is on record as 20% and the “Anticonvulsant % Protect 1hr” value worked out at 0%.
Take `C=CCC(C)CC(CN)CC(=O)O` (stereo not drawn) [3-Aminomethyl-5-methyl-oct-7-enoic acid]: the responders at 30 mg/kg in experiment [1] (setting [4]) and in experiment [1] (setting [5]) was 0% each time.
As for `CC(C)[C@H](C)[C@H](CN)CC(=O)O` [(3R,4S)-3-Aminomethyl-4,5-dimethyl-hexanoic acid], the “Anxiolytic Activity* % Preg. Act.” value in experiment [2] came to 58%.
As for `CCC(CC)C(CN)CC(=O)O` (stereo not drawn), in experiment [1], the “Anticonvulsant % Protect 2 br” value was 20% and the “Anticonvulsant % Protect 1hr” value was 0%.
As for `CC(C)[C@@H](C)[C@@H](CN)CC(=O)O` [(3S,4R)3-Aminomethyl-4,5-dimethyl-hexanoic acid], the “Anticonvulsant % Protect* 1h” value in experiment [1] (30 mg/kg PO, 1h) is recorded as 20%. Besides, the “Anticonvulsant % Protect* 2h” value in experiment [1] (30 mg/kg PO, 2h) worked out at 20%. In addition, in experiment [2], the “Anxiolytic Activity* % Preg. Act.” value is on record as 12%.
As to `CC(Cc1ccccc1)CC(CN)CC(=O)O` (stereo not drawn) [3-Aminomethyl-5-methyl-6-phenyl-hexanoic acid], the responders at 30 mg/kg in experiment [1] (setting [4]) and in experiment [1] (setting [5]) was 0% each time.
As for `CC(C)C[C@H](CN)CC(=O)O` [Pregabalin, (S)-3-(Aminomethyl)-5-methylhexanoic acid, reference compound], the responders at 30 mg/kg in experiment [1] (setting [5]) was 100%. The “Anxiolytic Activity* % Preg. Act.” value in experiment [2] is on record as 100%.
For the compound `CC(C)[C@@H](C)[C@H](CN)CC(=O)O` [(3R,4R)-3-Aminomethyl-4,5-dimethyl-hexanoic acid], the “Anxiolytic Activity* % Preg. Act.” value in experiment [2] is reported as 204%.
Take `CCC[C@@H](C)C[C@H](CN)CC(=O)O.Cl` [(3S,5R)-3-Aminomethyl-5-methyl-octanoic acid hydrochloride]: the responders at 30 mg/kg in experiment [1] (setting [4]) and in experiment [1] (setting [5]) was 100% throughout. Further, in experiment [2], the “Anxiolytic Activity* % Preg. Act.” value stood at 160%.
For `CC(C)[C@@H](C)C(CN)CC(=O)O` (stereo partly drawn), in experiment [1], the “Anticonvulsant % Protect 2 br” value worked out at 100% and the “Anticonvulsant % Protect 1hr” value was 80%.
For the compound `CCCC(C)CC(CN)CC(=O)O` (stereo not drawn) [3-Aminomethyl-5-methyloctanoic acid, 3-Aminomethyl-5-methyl-octanoic acid], the responders at 30 mg/kg was found to be 40% in experiment [1] (setting [4]) and 100% in experiment [1] (setting [5]).
The matching figures for `CCCCCC(C)CC(CN)CC(=O)O` (stereo not drawn) [3-Aminomethyl-5-methyldecanoic acid, 3-Aminomethyl-5-methyl-decanoic acid]: 0% and 0%.
On to `CCCC[C@@H](C)C[C@H](CN)CC(=O)O.Cl` [(3S,5R)-3-Aminomethyl-5-methyl-nonanoic acid hydrochloride], for which the responders at 30 mg/kg in experiment [1] (setting [4]) and in experiment [1] (setting [5]) was 100% each time. In addition, the “Anxiolytic Activity* % Preg. Act.” value in experiment [2] was 125.94%.
Turning to `Cl.O=C(O)[C@H]1CNCC12CCCCC2` [(R)-2-Aza-spiro[4.5]decane-4-carboxylic acid hydrochloride], the figures for the “percent of maximum possible effect (MPE)” value in experiment [3] (1 hour postdose) and in experiment [3] (2 hours postdose) were 53% and 4.6%, respectively.
In the case of `CCCC[C@H](C)C[C@H](CN)CC(=O)O` [(3S, 5S)-3-Aminomethyl-5-methyl-nonanoic acid], the responders at 30 mg/kg in experiment [1] (setting [4]) and in experiment [1] (setting [5]) was 0% each time.
Consider `CC[C@@H](C)[C@H](CN)CC(=O)O`, for which, in experiment [1], the “Anticonvulsant % Protect 2 br” value turned out to be 0% and the “Anticonvulsant % Protect 1hr” value came out at 0%.
As for `CCCC(C)C[C@H](CN)CC(=O)O` (stereo partly drawn) [(S)-3-Aminomethyl-5-methyl-octanoic acid], the responders at 30 mg/kg in experiment [1] (setting [4]) and in experiment [1] (setting [5]) was 100% in each case. Further, the “Anxiolytic Activity* % Preg. Act.” value in experiment [2] stood at 135.38%.
